Publication PMC8226722, “Comparison of Solution Chemical Properties and Biological Activity of Ruthenium Complexes of Selected β-Diketone, 8-Hydroxyquinoline and Pyrithione Ligands” (Pharmaceuticals, 2021)

How the values were obtained:
[1] = tested on: Staphylococcus aureus ATCC 43300 methicillin-resistant (MRSA); assay: MIC determination (CLSI broth microdilution); format: cell-based; settings: Gram-positive, MRSA ATCC 43300, 18 h
Method: (§1) Wild-type Escherichia coli K-12 AG100 strain [argE3 thi-1 rpsL xyl mtl Δ(gal-uvrB) supE44] expressing the AcrAB TolC EP at its basal level and Klebsiella pneumoniae ATCC 49,619 Gram-negative strains were studied in the experiments. Staphylococcus aureus ATCC 43,300 methicillin-resistant (MRSA) strain and Enterococcus faecalis ATCC 29,212 strain were used as Gram-positive strains in the assays. MIC values of the complexes were determined in 96-well plates based on the Clinical and Laboratory Standard Institute guidelines (CLSI guidelines). The stock solutions of the compounds (dissolved in DMSO using 10 mM concentration) were diluted in 100 μL of Mueller Hinton Broth. Then 10^−4 dilution of an overnight bacterial culture in 100 μL of medium was added to each well, with the exception of the medium control wells.

[2] = tested on: Escherichia coli K-12 AG100; assay: MIC determination (CLSI broth microdilution); format: cell-based; settings: Gram-negative, AG100, 18 h
Method: as §1

[3] = tested on: Klebsiella pneumoniae ATCC 49619; assay: MIC determination (CLSI broth microdilution); format: cell-based; settings: Gram-negative, ATCC 49619, 18 h
Method: as §1

[4] = tested on: Enterococcus faecalis ATCC 29212; assay: MIC determination (CLSI broth microdilution); format: cell-based; settings: Gram-positive, ATCC 29212, 18 h
Method: as §1

[5] = tested on: Colo 205 chemo-sensitive human colonic adenocarcinoma cell line; assay: MTT cytotoxicity assay, Colo 205; format: cell-based; settings: for IC50: 72 h, MTT; for S.I. MRC-5/Colo 205: ratio of the indicated IC50 values
Method: (§2) Human colonic adenocarcinoma cell lines Colo 205 doxorubicin-sensitive (ATCC-CCL-222) and Colo 320/MDR-LRP multidrug resistant expressing ABCB1 (MDR1)-LRP (ATCC-CCL-220.1) were purchased from LGC Promochem (Teddington, UK). […] Cell lines were incubated at 37 °C, in a 5% CO2, 95% air atmosphere. The semi-adherent human colon cancer cells were detached with Trypsin-Versene (EDTA, Sigma, Steinheim, Germany) solution for 5 min at 37 °C. MRC-5 human embryonal lung fibroblast cell lines (ATCC CCL-171) were purchased from LGC Promochem. […] The cell lines were incubated at 37 °C, in a 5% CO2, 95% air atmosphere.
(§3) In the study MRC-5 non-cancerous human embryonic lung fibroblast and human colonic adenocarcinoma cell lines (doxorubicin-sensitive Colo 205 and multidrug resistant Colo 320 colonic adenocarcinoma cells) were used to determine the effect of compounds on cell growth. The effects of increasing concentrations of compounds on cell growth were tested in 96-well flat-bottomed microtiter plates. The stock solutions of the compounds were prepared in DMSO, and in the final samples the DMSO content was always lower than 1%. The compounds were diluted in a volume of 100 μL of medium.
(§4) In case of the colonic adenocarcinoma cells, the two-fold serial dilutions of compounds were prepared in 100 μL of RPMI 1640, horizontally. The semi-adherent colonic adenocarcinoma cells were treated with Trypsin-Versene (EDTA) solution. They were adjusted to a density of 1 × 10^4 cells in 100 μL of RPMI 1640 medium, and were added to each well, with the exception of the medium control wells. The final volume of the wells containing compounds and cells was 200 μL.
(§5) The culture plates were incubated at 37 °C for 72 h; at the end of the incubation period, 20 μL of MTT (Sigma) solution (from a stock solution of 5 mg/mL) were added to each well. After incubation at 37 °C for 4 h, 100 μL of sodium dodecyl sulfate (SDS) (Sigma) solution (10% in 0.01 M HCl) were added to each well and the plates were further incubated at 37 °C overnight. Cell growth was determined by measuring the optical density (OD) at 540/630 nm with Multiscan EX ELISA reader (Thermo Labsystems, Cheshire, WA, USA). […] Curves were fitted by Prism software (GraphPad Software Inc., San Diego, CA, USA) using the sigmoidal dose-response model (comparing variable and fixed slopes). The IC50 values were obtained from at least 3 independent experiments.

[6] = tested on: Colo 320 multidrug resistant human colonic adenocarcinoma cell line; assay: MTT cytotoxicity assay, Colo 320; format: cell-based; settings: for IC50: 72 h, MTT; for S.I. MRC-5/Colo 320: ratio of the indicated IC50 values
Method: as §2, §3, §4, §5

[7] = Solution stability and speciation (UV-vis, 1H-NMR, pH-potentiometry); settings: for pH-dependent stability, UV-vis spectra: pH range 2–11, 24 h; for logK formation constant: suggested on the basis of pH-potentiometric data
Method: In order to confirm our prediction, time-dependent UV-visible (UV-vis) spectra were recorded for complexes 5–8 at pH 7.4 in aqueous solution (in modified phosphate buffered saline (PBS) buffer—PBS’) and in Eagle’s minimum essential medium (EMEM) used for the cytotoxicity studies in the presence of 2% (v/v) dimethyl sulfoxide (DMSO). […] Additionally, ^1H-NMR spectra were recorded for more water-soluble complexes 6–8.
In order to compare the stability of 1 and 3 at physiological pH, a serial dilution was made and UV-vis spectra were recorded in a wide concentration range (10 μM–3 mM) (Figure S10).
Titrations were performed in a carbonate-free KOH solution (0.20 M). The exact concentration of HCl and KOH solutions was determined by pH-potentiometric titrations.
The path length (l) was usually 1 cm, and 2, 5, 20 or 50 mm cells were used occasionally. Equilibrium constants (proton dissociation, stability constants, conditional stability constants (K’7.4) for the formation of mim adducts) and the individual spectra of the species were calculated with the computer program PSEQUAD [55]. The spectrophotometric titrations were performed in aqueous solution of the complexes at 25.0 ± 0.1 °C at an ionic strength of 0.20 M (KCl). Spectrum of the solution of 200 μM complex upon addition of one or two equivalents of its own ligand or phen was also measured at pH 7.4. UV-vis spectra recorded for the complexes as a function of chloride concentrations or PTA (in case of the chlorido complexes) were used to investigate the co-ligand exchange processes at pH 7.4. […] In some cases, the measurements were performed in the presence of 1–2% (Cl^−/PTA exchange reactions) or 6–8% (v/v) (interaction of mim with complexes 2, 4) DMSO.
^1H-NMR stability studies were carried out on a Bruker Avance III HD 500 MHz instrument. All ^1H-NMR spectra were recorded on samples containing 10% (v/v) D2O with the WATERGATE water suppression pulse scheme using DSS internal standard. Stability of complexes 6–8 was checked over time by ^1H-NMR spectroscopy at 500 μM in PBS’ or in EMEM (with 10% (v/v) DMSO-d6).

[8] = Parallel artificial membrane permeability assay (PAMPA); settings: for recovery: pH 7.4; for Peff, effective passive permeability: pH 7.4, 100 mM chloride, 5 h
Method: Chloride ion concentrations of 4, 24 and 100 mM were chosen according to the chloride content of the nucleus, cytosol and blood serum, respectively. […] Then parallel artificial membrane permeability assay (PAMPA) was used to estimate the ability of the complexes to penetrate membranes by passive diffusion and the effective passive permeability coefficients (Peff) obtained for complexes 1–3 are shown in Table 4 (in case of 4, there are no data due to formation of precipitate).
Distribution coefficients at physiological pH (D7.4) of the complexes were determined by the traditional shake-flask method in n-octanol/buffered aqueous solution at pH 7.40 (20 mM phosphate buffer) at various chloride concentrations and at 25.0 ± 0.2 °C using UV-vis detection as described in our former works [37, 38, 42]. PAMPA was applied for the complexes with a Gentest pre-coated PAMPA Plate System (Corning, Corning, NY, USA) [56]. Briefly, a 96-well filter plate was used as the permeation acceptor and the 96-well bottom plate was used as the permeation donor. For simplicity, PBS was used both as donor and acceptor buffer throughout this study. […] Peff values were calculated according to the equation reported by Yu et al. [57].

Cc1ccc(C(C)C)cc1.O=C(C=C([O-])C(F)(F)F)c1ccc(Cl)cc1.[Cl-].[Ru+2] [complex 7]
MIC S. aureus [1]: 50 µM | MIC E. coli [2]: >100 µM | MIC K. pneumoniae [3]: >100 µM | MIC E. faecalis [4]: 50 µM | IC50 [5]: 52.4 ± 2.7 µM | S.I. MRC-5/Colo 205 [5]: 0.51 | IC50 [6]: 29.1 ± 2 µM | S.I. MRC-5/Colo 320 [6]: 0.91

C1N2CN3CN1CP(C2)C3.Cc1ccc(C(C)C)cc1.F[P-](F)(F)(F)(F)F.[O-]n1ccc2ccccc2c1=S.[Ru+2] [complex 4]
MIC S. aureus [1]: >100 µM | MIC E. coli [2]: >100 µM | MIC K. pneumoniae [3]: >100 µM | MIC E. faecalis [4]: >100 µM | IC50 [5]: > 100 µM | S.I. MRC-5/Colo 205 [5]: <0.81 | pH-dependent stability, UV-vis spectra [7]: stayed unchanged | IC50 [6]: > 100 µM | S.I. MRC-5/Colo 320 [6]: <0.81

C1N2CN3CN1CP(C2)C3.Cc1ccc(C(C)C)cc1.F[P-](F)(F)(F)(F)F.O=C(C=C([O-])C(F)(F)F)c1ccc(Cl)cc1.[Ru+2] [complex 8]
MIC S. aureus [1]: 50 µM | MIC E. coli [2]: >100 µM | MIC K. pneumoniae [3]: >100 µM | MIC E. faecalis [4]: 100 µM | IC50 [5]: 80.6 ± 1.1 µM | S.I. MRC-5/Colo 205 [5]: 0.22 | IC50 [6]: 47.8 ± 7.3 µM | S.I. MRC-5/Colo 320 [6]: 0.37

Cc1ccc(C(C)C)cc1.[Cl-].[O-]n1ccccc1=S.[Ru+2] [complex 1]
MIC S. aureus [1]: 50 µM | MIC E. coli [2]: >100 µM | MIC K. pneumoniae [3]: >100 µM | MIC E. faecalis [4]: 100 µM | IC50 [5]: 14 ± 0.62 µM | S.I. MRC-5/Colo 205 [5]: 0.15 | recovery [8]: 1.3% | Peff, effective passive permeability [8]: 11.3 nm/s | fraction of unbound Ru(η6-p-cymene) ([7]; 1H-NMR, pH 1.0, 24 h, 200 mM chloride): < 3% | logK formation constant [7]: > 8 | IC50 [6]: 3.3 ± 1.3 µM | S.I. MRC-5/Colo 320 [6]: 0.66

C1N2CN3CN1CP(C2)C3.Cc1ccc(C(C)C)cc1.F[P-](F)(F)(F)(F)F.[O-]n1ccccc1=S.[Ru+2] [complex 2]
MIC S. aureus [1]: >100 µM | MIC E. coli [2]: >100 µM | MIC K. pneumoniae [3]: >100 µM | MIC E. faecalis [4]: >100 µM | IC50 [5]: > 100 µM | recovery [8]: 15% | Peff, effective passive permeability [8]: 28.8 nm/s | pH-dependent stability, UV-vis spectra [7]: stayed unchanged | IC50 [6]: > 100 µM

Cc1ccc(C(C)C)cc1.[Cl-].[O-]n1ccc2ccccc2c1=S.[Ru+2] [complex 3]
MIC S. aureus [1]: 12.5 µM | MIC E. coli [2]: >100 µM | MIC K. pneumoniae [3]: >100 µM | MIC E. faecalis [4]: 12.5 µM | IC50 [5]: 17.3 ± 3.1 µM | S.I. MRC-5/Colo 205 [5]: 0.44 | recovery [8]: 8.1% | Peff, effective passive permeability [8]: 33.5 nm/s | logK formation constant [7]: > 8 | IC50 [6]: 10.7 ± 1.5 µM | S.I. MRC-5/Colo 320 [6]: 0.71
